pEC50, pKd: −log10 of the molar value.

The term pEC50 denotes the negative decadic logarithm of the EC50, by convention in mol/L. Broadly, the pKd is −log10 of the Kd, conventionally taken in molar units. A low value points to a large Kd.

Assay [1] relates to A/H3N2/Udorn/72 PB2, PB1, PA, NP replicon (WT). As to the kind of experiment: cells. Type of assay: cell-based, influenza A/H3N2/Udorn/72 in 293 T cells. As to conditions: Influenza A virus, H3N2, HEK-293T, 48 h, read-out: Replicon EC50, WT. A general note: In antiviral work, replicon cells carry a viral genome segment that copies itself.
The target in assay [2] is PB2cap (Influenza A virus (A/Udorn/307/1972(H3N2)), UniProt Q67296). As to the kind of experiment: biochemical. Type of assay: binding, influenza A/Udorn/307/1972(H3N2).
For assay [3], the target named is PB2long (Influenza A virus (A/Udorn/307/1972(H3N2)), UniProt Q67296). The assay is described as follows: biochemical. Type of assay: binding, influenza A/Udorn/307/1972(H3N2).
The target of assay [4] is influenza A PB2long (FluA H3N2 PB2 241–741) (Influenza A virus (A/Udorn/307/1972(H3N2)), UniProt Q67296). The assay is described as follows: biochemical. Type of assay: binding, influenza A/Udorn/307/1972(H3N2).
Sequence of influenza A PB2long (FluA H3N2 PB2 241–741) (Influenza A virus (A/Udorn/307/1972(H3N2)), UniProt Q67296) (Q67296 241-741 limits assumed): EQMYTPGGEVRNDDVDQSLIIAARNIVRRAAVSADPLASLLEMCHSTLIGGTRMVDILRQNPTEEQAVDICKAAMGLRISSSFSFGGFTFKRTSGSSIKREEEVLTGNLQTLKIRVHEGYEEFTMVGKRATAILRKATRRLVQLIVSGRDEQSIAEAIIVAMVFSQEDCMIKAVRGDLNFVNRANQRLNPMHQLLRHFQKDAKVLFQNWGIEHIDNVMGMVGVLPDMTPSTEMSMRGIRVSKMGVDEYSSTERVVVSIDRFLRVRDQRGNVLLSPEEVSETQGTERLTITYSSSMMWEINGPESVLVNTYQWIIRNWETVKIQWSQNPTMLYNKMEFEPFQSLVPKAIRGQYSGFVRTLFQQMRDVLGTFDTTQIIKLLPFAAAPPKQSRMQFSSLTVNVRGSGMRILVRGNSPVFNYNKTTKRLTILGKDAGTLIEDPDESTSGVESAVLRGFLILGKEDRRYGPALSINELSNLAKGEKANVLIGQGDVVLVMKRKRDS

Sequence of PB2cap (Influenza A virus (A/Udorn/307/1972(H3N2)), UniProt Q67296) (Q67296 309-483 limits assumed): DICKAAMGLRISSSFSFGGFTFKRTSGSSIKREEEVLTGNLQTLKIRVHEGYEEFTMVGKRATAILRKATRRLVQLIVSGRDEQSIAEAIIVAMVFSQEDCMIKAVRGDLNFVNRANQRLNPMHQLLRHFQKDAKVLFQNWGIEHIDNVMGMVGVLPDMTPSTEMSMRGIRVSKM
Sequence of PB2long (Influenza A virus (A/Udorn/307/1972(H3N2)), UniProt Q67296) (Q67296 241-741 limits assumed): as the sequence (Q67296 241-741 limits assumed) above

Regarding `O=C(O)[C@H]1C2CCC(CC2)[C@@H]1Nc1nc(-c2c[nH]c3ncc(F)cc23)ncc1F` [VX-787], the pEC50 in assay [1] is 8.46. For the same compound, the results for the pKd in assay [2], in assay [3] and in assay [4] were 7.11, 11.17 and 9.17, respectively. Besides, the kon turned out to be 59000 M⁻¹ s⁻¹ in assay [2] (read-out: ka (association rate), PB2cap) and 2.9e+06 M⁻¹ s⁻¹ in assay [3] (read-out: ka (association rate), PB2long). Moreover, the koff in assay [2] (read-out: kd (dissociation rate), PB2cap) amounted to 0.0046 s⁻¹; in assay [3] (read-out: kd (dissociation rate), PB2long), 2e-05 s⁻¹.

The record behind these values is PMC5571044 (Scientific Reports, 2017).
